{"source": "patent US20070155803A1", "about": "“Protease inhibitors” (ProZymex A/S, priority 2003, published 2007)", "key": {"[1]": {"assay": "Metabolic stability in rat liver microsomes", "assay_type": "in vitro ADME", "conditions": "pH 7.4; rat liver microsomes 0.3 mg/mL, test compound 1 μM, 37° C.; read-out: Metabolic stability (t1/2 in min.) Rat liver microsomes", "protocol": "Assay for Determination of Metabolic Stability is Rat Liver Microsomes\nThe assay was performed at Cerep (Seattle) according to the protocol described by Kuhnz et. al. (Kuhnz, W., Gieschen, H. Drug Metab. Dispos., 26, 1120-1127), using rat liver microsomes (0.3 mg/mL), test compound (1 μM), NADP (1 mM), and G6P (5 mM), and G6PDHase (1 U/mL) with 0.6% methanol/0.6% acetonitrile in water. Incubation was performed at 37° C. in phosphate buffer (50 mM, pH=7.4), and the samples were analyzed for remaining product ion (selected reaction monitoring)by HPLC-MS/MS (Thermo Finnigan) at 0, 15, 30, 45 and 60 min. intervals."}, "Human DPP-I": {"biological_target": "T1, Human DPP-I (Homo sapiens, UniProt P53634)", "T1 construct": "purchased UniZyme A/S", "T1 sequence (P53634 231-394 limits assumed)": "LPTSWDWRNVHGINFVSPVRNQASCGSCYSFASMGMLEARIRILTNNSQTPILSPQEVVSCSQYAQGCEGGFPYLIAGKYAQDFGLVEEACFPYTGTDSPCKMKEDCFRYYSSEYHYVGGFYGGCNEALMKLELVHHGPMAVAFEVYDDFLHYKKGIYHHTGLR", "T1 sequence (P53634 395-463 limits assumed)": "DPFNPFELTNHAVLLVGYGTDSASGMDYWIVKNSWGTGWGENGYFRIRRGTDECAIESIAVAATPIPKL", "T1 sequence (P53634 25-143 limits assumed)": "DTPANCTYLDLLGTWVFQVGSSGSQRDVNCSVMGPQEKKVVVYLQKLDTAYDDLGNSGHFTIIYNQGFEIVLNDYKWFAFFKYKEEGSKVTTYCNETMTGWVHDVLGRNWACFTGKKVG", "assay": "Human Dipeptidyl Peptidase I (DPP-I) assay, AFC substrate", "assay_type": "biochemical", "conditions": "Gly-Phe-AFC substrate, pH 6.0, read-out: Primary enzymatic screening (IC50) DPP-I", "procedure": "Human Dipeptidyl Peptidase I (DPP-I) Assay\nUsing this assay, the IC50 value of a compound of the invention as a DPP-I inhibitor was determined using an AFC substrate.\n100 mM sodium phosphate (8.9 g Na2HPO4; M=177.99), 150 mM KCl (5.6 g KCl; M=74.6) and 1.5 mM EDTA (279 mg EDTA; M=372.2) was dissolved in 500 mL H2O, and pH was adjusted to 6.0. Cysteine*HCl (Sigma C-1276; M=157.6), 1 mg/mL assay buffer, corresponding to 6 mM, was added to the solution for activation of the DPP-I enzyme.\nGly-Phe-AFC*TFA (Enzyme Systems Products AFC-033) was used as the substrate for determination of IC50 values. […] The substrate was solubilized in DMSO to give a 7.5 mM stock solution (2.2 mg of substrate was added to 0.5 mL DMSO).\nHuman DPP-I (hDDP-I; obtained from UniZyme A/S, DK-2970 Horsholm, Denmark) was stored at −20° C. in a buffer containing 2.5 mM Na-phosphate, 150 mM NaCl, 2 mM cysteamine, 50% glycerol, pH 7.0 at a concentration of 2.5 mg/mL. This stock solution was diluted 200 times in the assay buffer.\nTh assay was performed in 96-well plates. […] The excitation wavelength was 400 nm, and the emission was measured at 505 nm for 10 minutes at 37° C. […] In the software (SOFTmax Pro) used for data collection from the fluorometer (Molecular Devices: Gemini XS), it was erisured that the measured slopes were linear (R^2>0.99). […]"}, "CYP1A2": {"biological_target": "T2, CYP1A2 (Homo sapiens, UniProt P05177)", "T2 construct": "purchased PanVera Vivid CYP1A2 Blue Screening Kit; host or cells: insect cells infected with baculovirus (microsomes)", "T2 sequence (P05177 2-516 limits assumed)": "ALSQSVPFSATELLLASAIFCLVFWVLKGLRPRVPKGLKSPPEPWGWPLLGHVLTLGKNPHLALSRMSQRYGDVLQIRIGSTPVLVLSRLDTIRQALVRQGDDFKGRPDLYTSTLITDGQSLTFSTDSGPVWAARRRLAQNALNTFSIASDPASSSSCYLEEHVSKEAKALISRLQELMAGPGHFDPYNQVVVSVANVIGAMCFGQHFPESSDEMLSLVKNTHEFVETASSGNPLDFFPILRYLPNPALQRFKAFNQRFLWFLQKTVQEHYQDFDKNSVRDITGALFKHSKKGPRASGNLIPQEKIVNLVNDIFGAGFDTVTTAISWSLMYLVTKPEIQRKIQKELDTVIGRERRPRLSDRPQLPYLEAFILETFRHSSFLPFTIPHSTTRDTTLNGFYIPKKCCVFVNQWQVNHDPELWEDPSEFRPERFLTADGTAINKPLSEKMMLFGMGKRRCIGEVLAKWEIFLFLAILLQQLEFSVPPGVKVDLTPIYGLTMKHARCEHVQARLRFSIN", "assay": "Human CYP1A2 assay (Vivid CYP1A2 Blue Screening Kit)", "assay_type": "in vitro ADME", "conditions": "20 μM cutoff; read-out: Metabolism: CYP enzymes (20 μM cutoff or IC50) CYP1A2", "protocol": "This assay was used to determine the effect of a compound of the invention on the CYP1A2 liver metabolizing enzyme.\nVivid® CYP1A2 Blue Screening Kit from PanVera was used.\nVivid®CYP450 Reaction Buffer I: 200 mM potassium phosphate buffer, pH 8.\nCYP1A2 baculosoniese® reagent: CYP1A2 and […] (P450-specific content: 1.1 μM). Microsomes prepared from insect cells that were infected with baculovirus containing the cDNA for human CYP1A2 and rabbit cytochrome P450 reductase.\nRegenerating System: 333 mM glucose-6-phosphate and 40 U/mL glucose-6-phosphate dehydrogenase in 100 mM potassium phosphate buffer, pH 8.\nVivid® CYP1A2 Blue Substrate.\nVivid® Blue Standard: 3-cyano-7-hydroxycoumarin.\n10 mM NADP^+ in 100 mM potassium phosphate buffer, pH 8.\n(§1) Tubes thawed on ice. 2× reaction buffer dispensed (room temperature) in two eppendorf tubes (for Mix A and Mix B).\n(§2) Controls or compounds of the invention: Diluted to a concentration of 50 μM. Positive control compound: α-naphthoflavone.\n(§3) Negative controls: DMSO and H2O.\nMix A: 485 μL reaction buffer, 10 μL regeneration system, 5 μL Baculosome reagent. Mixed gently and placed on ice. […]\nIn a 96-well plate (Costar c-3904), 40 μL of 50 μM sample dispensed. […] Fluorescence determined (Molecular Devices, SPECTRAmax Gemini EM): Ex: 409 nm, Em: 460 nm, at 37° C. for 20 min. (Automix: 5 s, top read.)."}, "CYP2C19": {"biological_target": "T3, CYP2C19 (Homo sapiens, UniProt P33261)", "T3 construct": "purchased PanVera Vivid CYP2C19 Red Screening Kit", "T3 sequence (P33261 whole entry)": "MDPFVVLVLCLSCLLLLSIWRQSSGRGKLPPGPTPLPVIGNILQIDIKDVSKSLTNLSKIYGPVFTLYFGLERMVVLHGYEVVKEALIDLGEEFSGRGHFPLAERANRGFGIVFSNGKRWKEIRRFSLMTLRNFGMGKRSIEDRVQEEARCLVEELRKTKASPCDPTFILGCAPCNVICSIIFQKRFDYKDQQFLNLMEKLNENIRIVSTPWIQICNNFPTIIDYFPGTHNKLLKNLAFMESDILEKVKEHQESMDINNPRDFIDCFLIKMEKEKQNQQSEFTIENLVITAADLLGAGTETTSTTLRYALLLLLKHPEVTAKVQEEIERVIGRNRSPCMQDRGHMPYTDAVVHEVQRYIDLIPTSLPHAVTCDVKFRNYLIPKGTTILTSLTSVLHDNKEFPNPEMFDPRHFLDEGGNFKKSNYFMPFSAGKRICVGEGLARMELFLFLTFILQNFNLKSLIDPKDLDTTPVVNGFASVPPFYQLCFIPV", "assay": "CYP2C19 assay (Vivid CYP2C19 Red Screening Kit)", "assay_type": "in vitro ADME", "conditions": "20 μM cutoff; read-out: Metabolism: CYP enzymes (20 μM cutoff or IC50) CYP2C19", "protocol": "as §1, §2, §3\nMix A: 485 μL reaction buffer, 10 μL regeneration system, 5 μL Baculosome reagent. Mixed gently and placed on ice.\nMix B: 88.5 μL reaction buffer, 1.5 μL substrate, 10 μL 10 mM NADP^+.\nIn a 96-well plate (Costar c-3904), 40 μL of 50 μM sample dispensed. 50 μl Mix A added. Incubated 20 min. at rt. Then, 10 μl of Mix B added. Fluorescence determined (Molecular Devices, SPECTRAmax Gemini EM): Ex: 409 nm, Em: 460 nm, at 37° C. for 20 min. (Automix: 5 s, top read.).\nFollowing the procedure for CYP1A2, using the appropriate kits below, the effect of a compound of the invention on the other CYP enzymes was determined:\nVivid® CYP2C19 Red Screening Kit from PanVera."}}, "note": "Square brackets hold non-standard residues; d marks the D form. Peptide text beside a SMILES is read from it. Phe(3-F) = N[C@@H](Cc1cccc(F)c1)C(=O)O; hPhe = N[C@@H](CCc1ccccc1)C(=O)O; Abu = CC[C@H](N)C(=O)O; azaGly = NNC(=O)O"}
{"compound": "CC[C@H](N)C(=O)NNC(=O)N[C@@H](CCc1ccccc1)C(=O)N[C@@H](Cc1cccc(F)c1)C(N)=O", "note": "[Example 11, 1-(2S-2-Aminobutanoyl)-4-[2S-N-[2S-3-(m-fluorophenyl)propan-2-yl-amide]-4-phenylbutan-2-yl-amide]semicarbazide] (H-[Abu][azaGly][hPhe][Phe(3-F)]-NH2)", "values": [{"measurement": "half-life at 1 μM", "setting": "[1]", "value": 23, "unit": "min"}, {"measurement": "IC50", "setting": "Human DPP-I", "value": "0.04 ± 0.006", "unit": "µM"}, {"measurement": "IC50", "setting": "CYP1A2", "value": "> 20", "unit": "µM"}, {"measurement": "IC50", "setting": "CYP2C19", "value": "> 20", "unit": "µM"}]}
